The results in this text go back to US20260115202A1, “TOPICAL COMPOSITIONS COMPRISING AN ESTETROL COMPONENT AND USE OF SAID COMPOSITIONS FOR WOUND HEALING” (NEURALIS SA, priority 2022, published 2026).

The subject of this assay is LPS-induced delayed wound healing mice model. Put plainly: In vivo LPS-induced delayed wound healing model: wound histology and immunohistochemistry. Conditions: versus LPS/PBO. From the text:
The in vivo LPS-induced delayed wound healing model was reproduced as previously described (Crompton R, Williams H, Ansell D, Campbell L, Holden K, Cruickshank S, Hardman M J. Oestrogen promotes healing in a bacterial LPS model of delayed cutaneous wound repair. Lab Invest. 2016 April, 96 (4): 439-49).
Female wild-type (C57BL/6J) 8 weeks old mice were split into six groups (6 animals per experimental group): • Double placebo control (no LPS, placebo treatment), • LPS control (LPS, placebo treatment), • LPS with topical EstroGel (estradiol gel, contains 0.06% 17β-estradiol as hemihydrate in a hydro-alcoholic gel), • LPS with topical AG24 (E4 at 0.5%), • LPS with topical AG25 (E4 at 0.22%), • LPS with topical AG26 (E4 at 0.06%).
The day prior to wounding (day −1), all the animals were weighed and anaesthetised using oxygen and isoflurane (flow rate 1.25-2 L with 2-2.5% isoflurane depending on clinical signs). Animals were shaved and dorsal areas prepped. Wound positions (2 wounds) were marked on the dorsum of each animal. Animals received a first subcutaneous injection of 2 μg K. pneumoniae-derived LPS diluted in DPBS (1 μg per wound: Sigma Aldrich, UK: L4268) at the wound site, except the double placebo group that received DPBS only. A thin layer of EstroGel, AG24, AG25, AG26 or placebo were then applied to the dorsum of each animal, measured as 60 μl total (30 μl/wound). Animals recovered in a warming cabinet and were then single housed in fresh cages containing alpha pad, RO water, food, mash and a house. On day 0 (24 hours after first anaesthesia), mice were re-anaesthetised and dorsal skin cleaned with chlorhexidine wipes. Two 6 mm dorsal excisions were created. 2 μg LPS (1 μg per wound) was subcutaneously injected at the wound site as above, except for the double placebo mice that were injected with DPBS. […]
These are expressed in the increase in uterus weight. Next, we evaluated wound closure from histological samples. […] The degree of re-epithelialisation was determined as the length of neo-epidermis divided by the distance between the wound margins, multiplied by 100.

Consider `C[C@]12CC[C@@H]3c4ccc(O)cc4CC[C@H]3[C@@H]1[C@@H](O)[C@@H](O)[C@@H]2O` [Formulation E4, 1,3,5 (10)-estratrien-3,15alpha, 16alpha, 17beta-tetrol], for which, under “day 5, K14 immunohistochemistry”, the wound re-epithelialisation entry is recorded as “promotes re-epithelialization”. For the same compound, for the setting “day 5, immunohistochemistry”, the wound macrophage numbers result is on record as “reduced numbers of wound macrophages” and the wound neutrophil numbers result is “reduced numbers of wound neutrophils”.
